Source: patent US20210293825A1, “METHODS FOR PRECISION THERAPEUTIC TARGETING OF HUMAN CANCER CELL MOTILITY AND KITS THEREOF” (UNITED STATES GOVERNMENT AS REPRESENTED BY THE DEPARTMENT …, priority 2018, published 2021)

Experiments:
[1] = tested on: protein phosphorylation in PC3-M and PC3 cells; assay: KinomeView phospho-motif antibody screen; type: cell-based, human; conditions: 10 μM, 3 days, ±TGFβ
From the text: Seeking to identify KBU2046's biological target(s), alternative methods were pursued. The KinomeView® panel of antibodies (Cell Signaling Technology, Inc.) detect established protein phosphorylation motifs, and were used to probe for KBU2046-induced changes in protein phosphorylation (FIG. 4a and FIG. 17). Phosphoprotein changes that met the following criteria were prioritized: were induced in cells in vitro as well as in tumors of treated mice (from FIG. 2a), that counteracted transforming growth factor β (TGFβ)-induced effects, and that were reproducible. TGFβ is ubiquitous in vivo, is known to increase PCa cell invasion (Huang, X. et al., Cancer Research 65, 3470-8 (2005)), and KBU2046's anti-invasion efficacy remains in spite of TGFβ-stimulated increases in cell invasion (FIG. 18). Genistein was evaluated under identical treatment conditions for comparison. […] In tumors of treated animals KBU2046 had this same effect on this 83 kDa protein band (green arrow in FIG. 17a). The high molecular selectivity of KBU2046 was further supported by its failure to inhibit over 400 different protein kinases and 20 phosphatases examined, in three different in vitro assay systems (see, Example 1).
Phospho-proteomic Analysis. The Kinoview™ and PhosphoScan™ assays were performed by Cell Signaling Technology Inc. […]

[2] = tested on: recombinant human protein kinases; assay: Kinex kinase assay system (inhibition of ATP binding); conditions: tested at 1 and 10 μM
Description: Kinase assay system #2. The Kinex™ kinase assay system (Kinexus Proteomics Company). This platform uses recombinant human protein kinases expressed in an insect expression system, thus allowing an avenue for post-translational modification. Also, this platform measures inhibition of ATP binding. This platform putatively measured 200 different kinases, and we tested KBU2046 at 1 and 10 μM. […] There were two important technical issues. First, at 10 μM KBU2046 interfered with the colorimetric-based readout of the assay. […] Conclusions: there was no evidence that KBU2046 inhibits kinase function by competing for ATP binding in the active site.

[3] = Histologic examination of tissue / systemic off-target effects; type: in vivo, Balb/c athymic mice
Description: Histologic examination of tissue. Organs of athymic male mice stained with H&E, Trichrome or Giemsa were microscopically examined by a mouse pathologist in a blinded fashion, and toxicity scored using an established semi-quantitative histological scoring system (Knodell, R. G. et al., Hepatology 1, 431-5 (1981)) (FIG. 14). The following clinical chemistry parameters were measured in blood of CD1 male and female mice by Charles River Research Animal Diagnostic Services: cholesterol, triglycerides, alanine aminotransferase (ALT), aspartate aminotransferase (AST), total bilirubin, glucose, phosphorus, total protein, calcium, blood urea nitrogen (BUN), creatinine, albumin, Na, K, Cl, white blood cells (with differential), red blood cells, hemoglobin, and platelets.
After 35 days of treatment, the following organs were harvested at necropsy, and stained with H&E (alternative staining methods as indicated): heart, lungs, esophagus, stomach, colon, small intestine, liver (Trichrome staining), kidneys (Trichrome staining), adrenals, bladder, prostate, spleen, pancreas, brain, testes, and bone marrow and peripheral blood (Giemsa staining). Organs were examined for damage using a semi-quantitative histological scoring system, as described (Knodell, R. G. et al., Hepatology 1, 431-5 (1981)). […] Note that mice were immunocompromised, and that changes in the liver reflected episodic and minor foci of necrosis, consistent with a prior resolved infection; clinically, mice were all healthy. The graph above depicts the scoring of liver lesions, with each data point representing a single mouse.

[4] = tested on: estrogen-responsive genes in MCF-7 cells; assay: Induction of estrogen-responsive genes (qRT/PCR); type: cell-based, human
From the text: FIG. 1a is a schematic flow of probe synthesis and development strategy. […] Values are mean±SEM of a single experiment in replicates of N=4, with similar findings in multiple separate experiments (also N=4). […] Values are mean±SEM of a single experiment in replicates of N=24, with similar findings in a separate experiment (also N=24). *Denotes Student's t test P value <0.05, compared to controls. […] Values are mean±SEM from N>2 separate experiments, each in replicates of N=3. […] Values are the mean±SD number of total, CFU-GM, CFU-GEMM or BFU-E colonies at 14 days after treatment with KBU2046, from a single experiment in replicates of N=2. […] Values are the mean±SD of a single experiment, with similar results seen in a separate experiment, both in replicates of N=2.
Quantitative Reverse Transcriptase Polymerase Chain Reaction. RNA was isolated and qRT/PCR was performed as described (Ding, Y. et al., J Biomol Tech 18, 321-30 (2007)), analyzed by the 2^−ΔΔCt method (Livak, K. J. et al., Methods 25, 402-8 (2001)), using primer/probes sets (ABI), HSP90α (Hs00743767_sH), HSP90β (Hs00427665_g1), trefoil factor 1 (TFF1; Hs00907239 ml), cathepsin D (CTSD; Hs00157205_m1), progesterone receptor (PGR; Hs01556702 ml) and GAPDH (Hs99999905_m1). Assays were repeated, each in replicates of N=2.

SMILES: O=C1c2ccccc2OCC1c1ccc(F)cc1 (racemic) [KBU2046, (±)-3(4-fluorophenyl)chroman-4-one]
- changes in protein phosphorylation [1]: induced a single change that met the pre-specified criteria
- inhibition of ATP binding [2]: completely negative
- changes in the liver ([3]; 35 days of treatment in chow): not increased by KBU2046 treatment
- organ damage (histological scoring) ([3]; 35 days of treatment in chow): No organ damage was observed, except in the livers of both control and treatment mice
- off-target effects (tumor growth, behavior, weight, histology, serum chemistry) ([3]; mouse, in vivo): failed to identify KBU2046-associated off-target effects
- activation of estrogen-responsive genes [4]: did not activate estrogen-responsive genes
